Reference: publication PMC8857485, “Prostate secretory protein 94 inhibits sterol binding and export by the mammalian CAP protein CRISP2 in a calcium-sensitive manner” (The Journal of Biological Chemistry, 2022)

Experiments:
[1] = system: sterol export by CAP proteins (Pry1, CRISP2, CRISP3); assay: In vivo sterol export assay ([14C]cholesteryl acetate export) in yeast; type: cell-based, Saccharomyces cerevisiae; conditions: 10 mM calcium in medium, cells expressing CRISP2 and PSP94
Text: To test whether expression of PSP94 would affect the function of Pry1 in sterol export, we expressed PSP94 fused to the N-terminal signal sequence from Pry1 (amino acids 1–19) from a constitutive alcohol dehydrogenase promoter (ADH1) to direct the protein into the yeast secretory pathway. This PSP94-containing plasmid was then transformed into heme-deficient yeast cells lacking the sterol deacetylase Say1 (hem1Δ say1Δ). This strain is able to take up radiolabeled [^14C]cholesterol, acetylate it in an alcohol acetyltransferase 2 (Atf2)-dependent pathway, and secrete the resulting radiolabeled cholesteryl acetate back into the culture medium ([29]). […] To test whether expression of PSP94 would affect the synthesis or secretion of Pry1, CRISP2, or CRISP3, we coexpressed FLAG-tagged PSP94 with hemagglutinin (HA)-tagged Pry1, CRISP2, or CRISP3, separated yeast cells from the culture medium, precipitated proteins from both fractions with trichloroacetic acid (TCA), and detected the tagged proteins by Western blotting.
The sterol export assay was performed as described ([29]). […] Extracted radiolabeled lipids were quantified by scintillation counting, and volumes corresponding to 10,000 cpm (counts per minute) were dried. […] TLC plates were then exposed to phosphorimager screens, and radiolabeled lipids were visualized and quantified using a phosphorimager. […]

[2] = molecular target: T1, CRISP2–PSP94 heteromeric complex (Homo sapiens, UniProt P16562); assay: Coimmunoprecipitation of PSP94-FLAG with CRISP2-HA from culture medium; type: cell-based, Saccharomyces cerevisiae
T1 construct: expressed in transfected cells; host or cells: Saccharomyces cerevisiae, plasmids pRS416 (CRISP2) and pRS414 (PSP94), ADH1 promoter
Description: To test whether calcium also affects the formation of the heteromeric complex in vivo, we analyzed complex formation by coimmunoprecipitation. Cells expressing CRISP2-HA and PSP94-FLAG were cultivated in the absence or presence of calcium (5 and 10 mM CaCl2), CRISP2-HA was immunoprecipitated from the culture medium, and Western blots were probed for the presence of PSP94-FLAG.
For Coimmunoprecipitation analysis, CRISP2 wildtype and mutant versions were tagged with an HA epitope tag, and wildtype PSP94 and the PSP94^F24G mutant version were fused to a FLAG tag. Yeast strains expressing these proteins were grown overnight and collected by centrifugation. The cell pellet was resuspended in lysis buffer (50 mM Tris-HCl pH 7.5, 100 mM NaCl, 0.1% NP-40, 10% glycerol, protease inhibitor, and 1 mM PMSF), and cells were broken with glass beads in a Precellys homogenizer. The culture medium was concentrated using size-exclusion protein concentrator spin columns (3K MWCO, Pierce, Thermo Scientific). Protein concentration was estimated by Bradford assay (Bio-Rad), and both the cell lysate and concentrated culture medium were incubated overnight at 4 °C with anti-HA magnetic beads (Pierce, Thermo Scientific). […] Samples were denatured for 10 min at 95 °C and analyzed by SDS-PAGE and Western blotting. […]

PSP94 = molecular target: T2, PSP94 (Homo sapiens, UniProt P08118); assay: MST binding to PSP94; conditions: calcium chloride titration
T2 construct: made in house; host or cells: E. coli BL21
Description: To test whether the interaction between PSP94 and CAP family members affects their sterol binding in vitro, we performed ligand binding assays using a more water-soluble cholesterol derivative, cholesterol sulfate. […] In the presence of an equimolar concentration of PSP94, however, sterol binding by the CAP proteins was blocked (Fig. 3B).
MST experiments were performed to assess protein–protein, protein–lipid, and protein–calcium interactions using a Monolith NT.115 (Nanotemper Technologies). Proteins were labeled using the RED-tris-NTA His tag protein labeling kit. Labeled CAP proteins, 100 nM, were mixed with a serial dilution of unlabeled PSP94, PSP9^F24G, cholesterol sulfate, or calcium chloride, prepared in binding buffer (20 mM Tris pH 7.5, 30 mM NaCl, 0.05% Triton X-100). Samples were loaded into MST standard capillaries, and MST measurements were performed using an 80% laser power setting. The dissociation constant Kd was obtained by plotting the normalized fluorescence (Fnorm) against the logarithm of ligand concentration. Experiments were performed in triplicates, and data were fitted using the Kd model of the MO.Affinity Analysis software (Nanotemper Technologies). For binding inhibition studies, CAP proteins and PSP94 were preincubated for 5 min at 24 °C before performing binding studies with cholesterol sulfate.

CRISP2 = molecular target: T3, CRISP2 (Homo sapiens, UniProt P16562); assay: MST binding to CRISP2; parameters: species or system mammalian; conditions: calcium chloride titration, read-out: Kd, calcium binding by CRISP2
T3 construct: made in house; host or cells: E. coli BL21
T3 sequence (P16562 22-243): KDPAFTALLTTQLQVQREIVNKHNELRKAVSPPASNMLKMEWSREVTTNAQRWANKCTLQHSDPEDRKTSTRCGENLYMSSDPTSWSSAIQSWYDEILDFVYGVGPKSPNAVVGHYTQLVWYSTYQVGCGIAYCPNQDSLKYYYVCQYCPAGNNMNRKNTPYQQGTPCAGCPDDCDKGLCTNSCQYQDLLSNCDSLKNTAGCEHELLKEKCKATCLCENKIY
Text: To confirm the direct interaction of PSP94 with CRISP3 and to test whether PSP94 would also bind other CAP family members such as yeast Pry1, or CRISP2, we performed in vitro protein binding assay using microscale thermophoresis (MST). Therefore, PSP94 and the CAP family members, Pry1, CRISP2, and CRISP3, were expressed as fusion proteins with a C-terminal polyhistidine tag in Escherichia coli, and the proteins were affinity purified on nickel-NTA agarose beads. The purified CAP proteins were then fluorescently labeled using RED-tris-NTA and incubated with varying concentrations of PSP94. […] PSP94 thus has high binding affinity for all three CAP proteins tested, and it also binds the CAP domain of Pry1 (Pry1^CAP) alone.
DNA encoding proteins of interest were PCR amplified and cloned into NcoI and XhoI restriction sites of pET22b, which contains a PelB signal sequence to direct the secretion of expressed protein into the periplasmic space. Plasmids were transformed into E. coli BL21, and proteins were expressed with a C-terminal polyhistidine tag. Different induction strategies were used: overnight induction with lactose at 24 °C for Pry1, CRISP2, and PSP94 and 6 h of induction with 0.4 mM IPTG at 24 °C for the CAP domain of Pry1. Cells were collected and lysed, and the soluble cell lysate was incubated with nickel-nitrilotriacetic acid beads as per the manufacturer instructions (Qiagen). Beads were washed and loaded onto a Ni^2+-NTA column, and proteins were eluted with a buffer containing 60 mM NaH2PO4, 300 mM NaCl, and 300 mM imidazole, pH 8.0. […] Protein concentration was determined by Lowry assay using the Folin reagent and bovine serum albumin as protein standard.
MST experiments were performed to assess protein–protein, protein–lipid, and protein–calcium interactions using a Monolith NT.115 (Nanotemper Technologies). […] The dissociation constant Kd was obtained by plotting the normalized fluorescence (Fnorm) against the logarithm of ligand concentration. […]

T2 sequence (P08118 21-114): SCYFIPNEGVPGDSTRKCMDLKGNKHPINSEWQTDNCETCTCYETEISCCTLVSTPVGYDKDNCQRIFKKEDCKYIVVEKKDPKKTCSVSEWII

With `[Ca+2]` [calcium, calcium chloride] the “effect on sterol export by CRISP2 in the presence of PSP94” value [1] was “restored sterol binding and export by CRISP2”, the “complex formation between CRISP2 and PSP94” value ([2]; cells grown in 5 mM calcium) was “reduced” and the “complex formation between CRISP2 and PSP94” value ([2]; cells grown in 10 mM calcium) was “could no longer be detected”. The Kd (PSP94) was 376 ± 1.7 µM and the Kd (CRISP2) was 0.052 ± 0.0009 µM.
